Results from ChEMBL document CHEMBL4359925, “Rational discovery of a highly novel and selective mTOR inhibitor” (Bioorg Med Chem Lett, 2019).

Tests used:
[1] = target: Phosphatidylinositol 4,5-bisphosphate 3-kinase catalytic subunit alpha isoform (Homo sapiens, UniProt P42336); assay: Inhibition of PI3K alpha (unknown origin)
[2] = target: Serine/threonine-protein kinase mTOR (Homo sapiens, UniProt P42345); assay: Inhibition of human mTOR measured after 30 mins in presence of ATP by Lanthascreen TR-FRET assay

Sequence of Phosphatidylinositol 4,5-bisphosphate 3-kinase catalytic subunit alpha isoform (P42336 whole entry, canonical isoform): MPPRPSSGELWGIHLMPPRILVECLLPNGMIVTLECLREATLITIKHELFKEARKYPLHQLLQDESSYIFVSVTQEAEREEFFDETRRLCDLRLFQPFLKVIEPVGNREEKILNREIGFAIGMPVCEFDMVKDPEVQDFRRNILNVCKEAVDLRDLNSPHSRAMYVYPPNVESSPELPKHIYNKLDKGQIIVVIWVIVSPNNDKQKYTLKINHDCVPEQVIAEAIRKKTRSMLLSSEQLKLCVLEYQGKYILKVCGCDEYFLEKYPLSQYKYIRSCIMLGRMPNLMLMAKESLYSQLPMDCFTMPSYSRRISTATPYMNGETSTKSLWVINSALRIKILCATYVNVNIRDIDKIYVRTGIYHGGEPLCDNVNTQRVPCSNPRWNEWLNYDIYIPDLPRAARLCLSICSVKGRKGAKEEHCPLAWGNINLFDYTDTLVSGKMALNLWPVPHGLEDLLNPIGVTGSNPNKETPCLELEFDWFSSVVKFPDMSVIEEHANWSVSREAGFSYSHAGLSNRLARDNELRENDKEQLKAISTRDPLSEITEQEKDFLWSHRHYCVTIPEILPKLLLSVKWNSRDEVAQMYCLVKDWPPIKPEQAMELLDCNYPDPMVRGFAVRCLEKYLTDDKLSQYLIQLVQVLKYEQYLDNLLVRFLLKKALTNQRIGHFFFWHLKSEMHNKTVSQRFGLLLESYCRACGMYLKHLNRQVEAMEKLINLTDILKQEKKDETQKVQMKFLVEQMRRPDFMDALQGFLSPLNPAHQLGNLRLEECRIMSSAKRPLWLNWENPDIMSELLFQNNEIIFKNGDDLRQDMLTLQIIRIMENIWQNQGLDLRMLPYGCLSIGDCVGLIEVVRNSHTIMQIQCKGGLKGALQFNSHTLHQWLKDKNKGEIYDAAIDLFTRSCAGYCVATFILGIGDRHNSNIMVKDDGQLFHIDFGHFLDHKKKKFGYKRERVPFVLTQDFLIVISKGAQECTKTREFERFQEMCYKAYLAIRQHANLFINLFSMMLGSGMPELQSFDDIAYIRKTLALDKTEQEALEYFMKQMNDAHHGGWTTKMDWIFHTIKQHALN

- IC50 [1]: 794 nM
- IC50 [2]: 6.31 nM
SMILES: C[C@@]12COCCN1c1nc(-c3ccc(NC(=O)NC4CC4)cc3)ncc1N(CC1CC1)C2=O
